Experimental data taken from patent publication US6849598B1, “Therapeutic compositions comprising bactericidal/permeability-increasing (BPI) protein products” (XOMA, priority 1995, dated 2005).

Legend:
Format in all cases: cell-based
[1] = tested on: P. aeruginosa (ATCC 19660); assay: Antibiotic susceptibility (MIC, Microscan® MIC Plus Type 2 panel) with rBPI21/P123 and EDTA; parameters: key to susceptibility interpretation of MIC (superscript): R: resistant; I: intermediate; S: susceptible; conditions: for effect of EDTA added to the rBPI21/P123 formulation on susceptibility of the strain to the antibiotic: summary of Table 17
A. baumannii [2] = assay: Bactericidal activity with heat-treated PLURONIC P104 in serial 2-fold dilutions of serum; conditions: formulated BPI protein product diluted with heat-treated PLURONIC P104 solution
Method: Additional experiments were performed to test therapeutic compositions, prepared by diluting a variety of formulated BPI protein products with heat-treated PLURONIC P104 solution, and tested against A. baumannii in serial 2-fold dilutions of serum.

A. baumannii [3] = assay: Bactericidal activity in water, TSB, CSMHB or serum, CFU after 24 hours (Example 5)
Method: (§1) The bactericidal activity of therapeutic compositions comprising BPI protein product and PLURONIC F68, P103, P104, P105 or P123 were evaluated against the S. aureus and A. baumannii organisms of Example 1, the S. pneumoniae organism of Example 3, an E. faecium organism (Microscan® ID No. 16866), and a strain of P. aeruginosa from the American Type Culture Collection (ATCC No. 19660). Therapeutic compositions were formulated by adding the appropriate amount of poloxamer to a stock solution of 2.2 mg/mL rBPI21 (5 mM sodium citrate, 150 mM NaCl, without poloxamer), to achieve the desired 0.2% (w/v) poloxamer concentration, followed by sterile filtration. Formulated product was stored at 2-8° C. for up to 6 months. Sterile stock solutions of poloxamer were made by dissolving the poloxamer paste in water for injection (WFI, Kendall-McGaw) with mixing to a 1-5% concentration (w/v) at room temperature, followed by sterile filtration. Assays were conducted in 96-well microtiter plates using WFI, tryptic soy broth (TSB, Remel, Lenexa, Kans.), Mueller-Hinton Broth plus Cations (CSMHB, Remel), or 40% pooled human serum in CSMHB (Sigma, St. Louis, Mo.) as growth media, according to the general procedure described above in Examples 2 and 3.

[4] = tested on: E. faecium (Microscan® ID No. 16866); assay: as above
Method: as §1

S. aureus = assay: as above
Method: as §1

S. pneumoniae = assay: as above; conditions: Control 3 × 10^5
Method: as §1

[5] = rBPI21/P123 at 64 μg/ml rBPI21, With 0% EDTA
[6] = rBPI21/P123 at 64 μg/ml rBPI21, With 0.01% EDTA
[7] = rBPI21/P123 at 64 μg/ml rBPI21, With 0.05% EDTA
[8] = rBPI21/P123 at 64 μg/ml rBPI21, With 0.1% EDTA

Molecule: CC(C)(O/N=C(\C(=O)N[C@@H]1C(=O)N2C(C(=O)[O-])=C(C[n+]3ccccc3)CS[C@H]12)c1csc(N)n1)C(=O)O [Ceftazidime]
- Minimum Inhibitory Concentration of Antibiotic ([1]; Control (No BPI21)): 2 µg/mL
- susceptibility interpretation of MIC (superscript) ([1]; Control (No BPI21)): S
- Minimum Inhibitory Concentration of Antibiotic [1, 5]: < 1 µg/mL
- susceptibility interpretation of MIC (superscript) [1, 5]: S
- Minimum Inhibitory Concentration of Antibiotic [1, 6]: < 1 µg/mL
- susceptibility interpretation of MIC (superscript) [1, 6]: S
- Minimum Inhibitory Concentration of Antibiotic [1, 7]: < 1 µg/mL
- susceptibility interpretation of MIC (superscript) [1, 7]: S
- Minimum Inhibitory Concentration of Antibiotic [1, 8]: < 1 µg/mL
- susceptibility interpretation of MIC (superscript) [1, 8]: S

Molecule: CO/N=C(\C(=O)N[C@@H]1C(=O)N2C(C(=O)O)=CCS[C@H]12)c1csc(N)n1 [Ceftizoxime]
- Minimum Inhibitory Concentration of Antibiotic ([1]; Control (No BPI21)): 32 µg/mL
- susceptibility interpretation of MIC (superscript) ([1]; Control (No BPI21)): I
- Minimum Inhibitory Concentration of Antibiotic [1, 5]: 16 µg/mL
- susceptibility interpretation of MIC (superscript) [1, 5]: I
- Minimum Inhibitory Concentration of Antibiotic [1, 6]: < 2 µg/mL
- susceptibility interpretation of MIC (superscript) [1, 6]: S
- Minimum Inhibitory Concentration of Antibiotic [1, 7]: 8 µg/mL
- susceptibility interpretation of MIC (superscript) [1, 7]: S
- Minimum Inhibitory Concentration of Antibiotic [1, 8]: < 2 µg/mL
- susceptibility interpretation of MIC (superscript) [1, 8]: S
- effect of EDTA added to the rBPI21/P123 formulation on susceptibility of the strain to the antibiotic [1]: increasing the susceptibility

Molecule: CO/N=C(\C(=O)N[C@@H]1C(=O)N2C(C(=O)O)=C(CSc3nc(=O)c(=O)[nH]n3C)CS[C@H]12)c1csc(N)n1 [Ceftriaxone]
- Minimum Inhibitory Concentration of Antibiotic ([1]; Control (No BPI21)): 16 µg/mL
- susceptibility interpretation of MIC (superscript) ([1]; Control (No BPI21)): I
- Minimum Inhibitory Concentration of Antibiotic [1, 5]: 4 µg/mL
- susceptibility interpretation of MIC (superscript) [1, 5]: S
- Minimum Inhibitory Concentration of Antibiotic [1, 6]: 8 µg/mL
- susceptibility interpretation of MIC (superscript) [1, 6]: S
- Minimum Inhibitory Concentration of Antibiotic [1, 7]: < 2 µg/mL
- susceptibility interpretation of MIC (superscript) [1, 7]: S
- Minimum Inhibitory Concentration of Antibiotic [1, 8]: < 2 µg/mL
- susceptibility interpretation of MIC (superscript) [1, 8]: S
- effect of EDTA added to the rBPI21/P123 formulation on susceptibility of the strain to the antibiotic [1]: increasing the susceptibility

Molecule: O=C(N[C@H](CO)[C@H](O)c1ccc([N+](=O)[O-])cc1)C(Cl)Cl [Chloramphenicol]
- Minimum Inhibitory Concentration of Antibiotic ([1]; Control (No BPI21)): > 16 µg/mL
- susceptibility interpretation of MIC (superscript) ([1]; Control (No BPI21)): R
- Minimum Inhibitory Concentration of Antibiotic [1, 5]: 8 µg/mL
- susceptibility interpretation of MIC (superscript) [1, 5]: S
- Minimum Inhibitory Concentration of Antibiotic [1, 6]: 16 µg/mL
- susceptibility interpretation of MIC (superscript) [1, 6]: I
- Minimum Inhibitory Concentration of Antibiotic [1, 7]: < 2 µg/mL
- susceptibility interpretation of MIC (superscript) [1, 7]: S
- Minimum Inhibitory Concentration of Antibiotic [1, 8]: < 2 µg/mL
- susceptibility interpretation of MIC (superscript) [1, 8]: S
- effect of EDTA added to the rBPI21/P123 formulation on susceptibility of the strain to the antibiotic [1]: reversing resistance

B1: rBPI21: expression product of DNA encoding amino acid 1 to approximately 193 or 199 of BPI holoprotein, cysteine 132 substituted with alanine (protein, UniProt P17213 32-224, looked up, variant C132A)
chain: VNPGVVVRISQKGLDYASQQGTAALQKELKRIKIPDYSDSFKIKHLGKGHYSFYSMDIREFQLPSSQISMVPNVGLKFSISNANIKISGKWKAQKRFLKMSGNFDLSIEGMSISADLKLGSNPTSGKPTITASSCSSHINSVHVHISKSKVGWLIQLFHKKIESALRNKMNSQVCEKVTNSVSSELQPYFQTL
- serum concentrations at which bactericidal activity was observed (A. baumannii [2]): ≤ 6.25%
- colony forming units after 24 hours of incubation (A. baumannii [3]; Serum (40% pooled human serum in CSMHB), Control 2 × 10^5): 2 × 10^5
- colony forming units after 24 hours of incubation (A. baumannii [3]; TSB, Control 3 × 10^6): 6 × 10^2
- colony forming units after 24 hours of incubation (A. baumannii [3]; Water, Control 2 × 10^6): <100
- colony forming units after 24 hours of incubation ([4]; TSB, Control 5 × 10^5): 5 × 10^5
- colony forming units after 24 hours of incubation ([4]; Water, Control 4 × 10^5): 100
- colony forming units after 24 hours of incubation (S. aureus; Serum (40% pooled human serum in CSMHB), Control 4.2 × 10^5): >1 × 10^5
- colony forming units after 24 hours of incubation (S. aureus; TSB, Control 5.4 × 10^5): 5.7 × 10^5
- colony forming units after 24 hours of incubation (S. aureus; Water, Control 8.2 × 10^5): 3.2 × 10^4
- colony forming units after 24 hours of incubation (S. pneumoniae): 5 × 10^4
